{"source": "patent US20110105577A1", "about": "(priority 2007, published 2011)"}
{"system": "Aspergillus flavus", "units": {"Aflatoxin B1 [ppb]": "ppb"}}
{"smiles": "CON=C(C(=O)OC)c1ccccc1CON=C(C)c1cccc(C(F)(F)F)c1", "note": "[Trifloxystrobin]", "Aflatoxin B1 [ppb]": 375}
{"smiles": "OC(Cc1ccccc1Cl)(Cn1nc[nH]c1=S)C1(Cl)CC1", "note": "(centres unmarked) [Prothioconazole]", "Aflatoxin B1 [ppb]": 865}
{"smiles": "N#Cc1c[nH]cc1-c1cccc2c1OC(F)(F)O2", "note": "[Fludioxonil]", "Aflatoxin B1 [ppb]": 1230}
{"smiles": "CC(C)(C)C(O)(CCc1ccc(Cl)cc1)Cn1cncn1", "note": "(centres unmarked) [Tebuconazole]", "Aflatoxin B1 [ppb]": 2445}
{"system": "Aspergillus parasiticus", "units": {"Aflatoxin B1 [ppb]": "ppb"}}
{"smiles": "CON=C(C(=O)OC)c1ccccc1CON=C(C)c1cccc(C(F)(F)F)c1", "note": "[Trifloxystrobin]", "Aflatoxin B1 [ppb]": 9775}
{"smiles": "OC(Cc1ccccc1Cl)(Cn1nc[nH]c1=S)C1(Cl)CC1", "note": "(centres unmarked) [Prothioconazole]", "Aflatoxin B1 [ppb]": 37785}
{"smiles": "N#Cc1c[nH]cc1-c1cccc2c1OC(F)(F)O2", "note": "[Fludioxonil]", "Aflatoxin B1 [ppb]": 17390}
{"smiles": "CC(C)(C)C(O)(CCc1ccc(Cl)cc1)Cn1cncn1", "note": "(centres unmarked) [Tebuconazole]", "Aflatoxin B1 [ppb]": 4545}
